Measurements reported in patent publication US10377774B2 (JINAN UNIVERSITY, priority 2013, dated 2019).
Marks after values point to notes of the source that are not given here.

What was measured:
[1] = tested on: human nasopharyngeal carcinoma cell line CNE-2; experiment: MTT cell growth inhibition, CNE-2; assay type: cell-based; conditions: CNE-2, MTT assay, 72 h; read-out: IC50, growth of tumor cell line
From the text: (§3) Experimental method: Cell lines (human non-small-cell lung cancer cell line A549, human colon cancer cell line LOVO, human nasopharyngeal carcinoma cell line CNE-2, human liver cancer cell line HepG2, human cervical carcinoma cell line Hela, human breast cancer cell lines MCF-7 and MDA-MB-231, human gastric carcinoma cell line NCI-N87, human prostatic cancer cell lines PC-3 and DU145, human leukemia cell line K562, human melanoma cell line A375, human neuroblastoma cell line SH-SY5H, human promyelocytic leukemia cell line HL-60, 5-FU-resistant human hepatocellular carcinoma cell line BEL-7402/5-Fu, doxorubicin-resistant hepatocellular carcinoma cell line HepG2/ADM, doxorubicin-resistant human breast cancer cell lines MCF-7/ADR) at logarithmic phase were resuspended in RPMI 1640 medium (containing 10% fetal bovine serum, 100 U/mL penicillin-streptomycin). Then, 100 μL of cells (cell concentration was 5×10^5/mL) were seeded into 96 wells plate. After 24 h incubation at 37° C. with 5% CO2, tested compounds were added (the control group without compound) for an additional 72 h incubation. After that, 30 μL of MTT [3-(4,5-Dimethylthiazol-2-yl)-2,5-diphenyltetrazolium bromide] solution (5 mg/mL) was added into each well and incubated for another 4 h at 37° C. and then the formazan crystals were solubilized with 100 μL DMSO. Finally, absorbance of each well was determined at 570 nm by a microplate reader (Thermo).
(§4) The concentration required to inhibit cell growth by 50% (IC50) was calculated from survival curves.

[2] = tested on: human normal liver cells LO2; experiment: MTT cytotoxicity on normal cells, LO2; conditions: read-out: IC50, cytotoxicity on normal cell line; LO2, MTT assay
Procedure: (§5) Then, 100 μL of cells (cell concentration was 5×10^5/mL) were seeded into 96 wells plate. After 24 h incubation at 37° C. with 5% CO2, tested compounds were added (the control group without compound) for an additional 72 h incubation. After that, 30 μL of MTT [3-(4,5-Dimethylthiazol-2-yl)-2,5-diphenyltetrazolium bromide] solution (5 mg/mL) was added into each well and incubated for another 4 h at 37° C. and then the formazan crystals were solubilized with 100 μL DMSO. Finally, absorbance of each well was determined at 570 nm by a microplate reader (Thermo).
(§6) The standard curve was drew with compound concentrations as the abscissa and cell growth inhibition rates as the ordinate. The concentration required to inhibit cell growth by 50% (IC50) was calculated from survival curves.
(§7) Experimental method: In vitro cytotoxicities of vinca alkaloids, hydrazinolyzed vinca alkaloids and vinca alkaloid dipeptide derivatives on human normal liver cells LO2 and human umbilical vein endothelial cells HUVEC were detected according to the method of Example 2.

[3] = tested on: human melanoma cell line A375; experiment: MTT cell growth inhibition, A375; assay type: cell-based; conditions: A375, MTT assay, 72 h; read-out: IC50, growth of tumor cell line
From the text: as §3, §4

[4] = tested on: doxorubicin-resistant hepatocellular carcinoma cell line HepG2/ADM; experiment: MTT cell growth inhibition, HepG2/ADM; assay type: cell-based, human; conditions: MTT assay, 72 h, read-out: IC50, growth of tumor cell line
From the text: as §3, §4

[5] = tested on: human promyelocytic leukemia cell line HL-60; experiment: MTT cell growth inhibition, HL-60; assay type: cell-based; conditions: HL-60, MTT assay, 72 h; read-out: IC50, growth of tumor cell line
From the text: as §3, §4

[6] = tested on: human leukemia cell line K562; experiment: MTT cell growth inhibition, K562; assay type: cell-based; conditions: K562, MTT assay, 72 h; read-out: IC50, growth of tumor cell line
From the text: as §3, §4

Kunming mice = experiment: Acute toxicity test; assay type: in vivo; conditions: injected intraperitoneally
Procedure: Experimental method: Kunming mice were purchased from Guangdong Medical Experimental Animal Center, weighing 18-22 g, then randomly divided into several groups with 10 mice in each group. Different concentrations of VLB and vinca alkaloid dipeptide derivatives were injected intraperitoneally. Finally, the median lethal dose (LD50) was calculated according to the surviving animals.
LD50 was measured using the following formula:
LD50 (mg/kg)=The median lethal dose/body weight

MDA-MB-231 xenografts = MDA-MB-231 xenografts in nude mice; assay type: in vivo, BALB/nu/nu mice; conditions: MDA-MB-231 xenograft nude mice; for Anti-tumor rate (%) / Body weight (g) Post-dose / Tumor weight: 1 mg/kg i.p. every two days, 8 administrations; for Body weight (g) Pre-dose: before dosing
Procedure: (§1) Experimental method: The MDA-MB-231 cells at logarithmic phase were digested and washed twice with PBS. Then, 100 μL cells (1×10^7) were inoculated subcutaneously on the backs of female BALB/nu/nu mice. After tumors grew to 70˜100 mm^3, the mice were divided randomly into saline group (control group), vinca alkaloids groups (VLB, CCRB, CCFN, CCXJ) and vinca alkaloid derivatives groups (JJ-CCJ, BX-CCJ, JJ-CCRB, BX-CCRB, JJ-CCFN, BX-CCFN, JJ-CCXJ and BX-CCXJ), with six mice per group. 1 mg/kg drugs were injected intraperitoneally every two days, meanwhile body weight and tumor sizes were measured. Experiment was ended after 8 times of drug administration, then tumor and organs were stripped. Tumor volumes were measured using the following formula: V=½(ab^2), whereas a refers to the longest diameter and b is the shortest diameter.

[7] = tested on: human prostatic cancer cell line DU145; experiment: MTT cell growth inhibition, DU-145; assay type: cell-based; conditions: DU-145, MTT assay, 72 h; read-out: IC50, growth of tumor cell line
[8] = tested on: human neuroblastoma cell line SH-SY5H; experiment: MTT cell growth inhibition, SH-SY5H; assay type: cell-based; conditions: MTT assay, 72 h, read-out: IC50, growth of tumor cell line
From the text: as §3, §4

[9] = tested on: human liver cancer cell line HepG2; experiment: MTT cell growth inhibition, HepG2; assay type: cell-based; conditions: HepG2, MTT assay, 72 h; read-out: IC50, growth of tumor cell line
From the text: as §3, §4

[10] = tested on: human breast cancer cell line MDA-MB-231; experiment: MTT cell growth inhibition, MDA-MB-231; assay type: cell-based; conditions: MDA-MB-231, MTT assay, 72 h; read-out: IC50, growth of tumor cell line
From the text: as §3, §4

HepG2 xenografts = HepG2 xenografts in nude mice; assay type: in vivo; conditions: HepG2 xenograft nude mice; for Anti-tumor rate (%) / Body weight (g) Post-dose / Tumor weight: 1 mg/kg; for Body weight (g) Pre-dose: before dosing
Procedure: as §1
(§2) Tumor xenograft models of HepG2, LOVO, K562 and HL-60 cell lines were performed as the method described above.

[11] = tested on: 5-FU-resistant human hepatocellular carcinoma cell line BEL-7402/5-Fu; experiment: MTT cell growth inhibition, BEL-7402/5-Fu; assay type: cell-based; conditions: MTT assay, 72 h, read-out: IC50, growth of tumor cell line
[12] = tested on: human cervical carcinoma cell line Hela; experiment: MTT cell growth inhibition, Hela; assay type: cell-based; conditions: MTT assay, 72 h, read-out: IC50, growth of tumor cell line
From the text: as §3, §4

K562 xenografts = K562 xenografts in nude mice; assay type: in vivo; conditions: K562 xenograft nude mice; for Anti-tumor rate (%) / Body weight (g) Post-dose / Tumor weight: 1 mg/kg; for Body weight (g) Pre-dose: before dosing
Procedure: as §1, §2

HL-60 xenografts = HL-60 xenografts in nude mice; assay type: in vivo; conditions: HL-60 xenograft nude mice; for Anti-tumor rate (%) / Body weight (g) Post-dose / Tumor weight: 1 mg/kg; for Body weight (g) Pre-dose: before dosing
Procedure: as §1, §2

[13] = tested on: human non-small-cell lung cancer cell line A549; experiment: MTT cell growth inhibition, A549; assay type: cell-based; conditions: A549, MTT assay, 72 h; read-out: IC50, growth of tumor cell line
From the text: as §3, §4

[14] = tested on: human umbilical vein endothelial cells HUVEC; experiment: MTT cytotoxicity on normal cells, HUVEC; conditions: read-out: IC50, cytotoxicity on normal cell line; HUVEC, MTT assay
Procedure: as §5, §6, §7

LOVO xenografts = LOVO xenografts in nude mice; assay type: in vivo; conditions: LOVO xenograft nude mice; for Anti-tumor rate (%) / Body weight (g) Post-dose / Tumor weight: 1 mg/kg; for Body weight (g) Pre-dose: before dosing
Procedure: as §1, §2

[15] = tested on: human colon cancer cell line LOVO; experiment: MTT cell growth inhibition, LOVO; assay type: cell-based; conditions: LOVO (FAPα positive), MTT assay, 72 h; read-out: IC50, growth of tumor cell line
From the text: as §3, §4

[16] = tested on: human prostatic cancer cell line PC-3; experiment: MTT cell growth inhibition, PC-3; assay type: cell-based; conditions: PC-3, MTT assay, 72 h; read-out: IC50, growth of tumor cell line
From the text: as §3, §4

[17] = tested on: human gastric carcinoma cell line NCI-N87; experiment: MTT cell growth inhibition, NCI-N87; assay type: cell-based; conditions: NCI-N87, MTT assay, 72 h; read-out: IC50, growth of tumor cell line
[18] = tested on: human breast cancer cell line MCF-7; experiment: MTT cell growth inhibition, MCF-7; assay type: cell-based; conditions: MCF-7, MTT assay, 72 h; read-out: IC50, growth of tumor cell line
From the text: as §3, §4

[19] = tested on: doxorubicin-resistant human breast cancer cell lines MCF-7/ADR; experiment: MTT cell growth inhibition, MCF-7/ADR; assay type: cell-based; conditions: MTT assay, 72 h, read-out: IC50, growth of tumor cell line
From the text: as §3, §4

| SMILES | IC50 [1] | IC50 [2] | IC50 [3] | IC50 [4] | IC50 [5] | IC50 [6] | LD50 (median lethal dose) (Kunming mice) | Anti-tumor rate (%) (MDA-MB-231 xenografts) | Body weight (g) Post-dose (MDA-MB-231 xenografts) | Tumor weight (MDA-MB-231 xenografts) | Body weight (g) Pre-dose (MDA-MB-231 xenografts) | IC50 [7] | IC50 [8] | IC50 [9] | IC50 [10] | Anti-tumor rate (%) (HepG2 xenografts) | Body weight (g) Post-dose (HepG2 xenografts) | Tumor weight (HepG2 xenografts) | Body weight (g) Pre-dose (HepG2 xenografts) | IC50 [11] | other results |
| --- | --- | --- | --- | --- | --- | --- | --- | --- | --- | --- | --- | --- | --- | --- | --- | --- | --- | --- | --- | --- | --- |
| CCC1(O)CC2CN(CCc3c([nH]c4ccccc34)C(C(=O)OC)(c3cc4c(cc3OC)N(C)C3C(O)(C(=O)NNC(=O)C5CCCN5C(=O)CNC(=O)OCc5ccccc5)C(O)C5(CC)C=CCN6CCC43C65)C2)C1 (centres unmarked) [BX-CCJ, Z-GP-NHNH-Vinblastine] | 52.7 ± 3.01 nM | 96.3 ± 1.11 nM | 49.5 ± 4.53 nM | 146 ± 5.47 nM | 85.5 ± 9.57 nM | 11.7 ± 3.04 nM | 10 mg/kg | 92.34** % | 21.2 ± 2.1 g | 0.20 ± 0.12 g | 19.8 ± 1.0 g | 57.3 ± 2.07 nM | 59.8 ± 6.42 nM | 46.8 ± 1.17 nM | 64.2 ± 4.57 nM | 86.67** % | 22.1 ± 1.3 g | 0.34 ± 0.21 g | 22.0 ± 1.7 g | 179 ± 8.87 nM | IC50 [12]: 56.8 ± 3.08 nM; Anti-tumor rate (%) (K562 xenografts): 76.79** %; Body weight (g) Post-dose (K562 xenografts): 23.1 ± 1.4 g; Tumor weight (K562 xenografts): 0.39 ± 0.27 g; Body weight (g) Pre-dose (K562 xenografts): 22.3 ± 1.0 g; Anti-tumor rate (%) (HL-60 xenografts): 81.29** %; Body weight (g) Post-dose (HL-60 xenografts): 20.1 ± 1.0 g; Tumor weight (HL-60 xenografts): 0.41 ± 0.19 g; Body weight (g) Pre-dose (HL-60 xenografts): 18.8 ± 1.1 g; IC50 [13]: 62.1 ± 3.87 nM; IC50 [14]: 129 ± 1.34 nM; Anti-tumor rate (%) (LOVO xenografts): 85.02** %; Body weight (g) Post-dose (LOVO xenografts): 24.4 ± 1.6 g; Tumor weight (LOVO xenografts): 0.43 ± 0.38 g; Body weight (g) Pre-dose (LOVO xenografts): 23.8 ± 1.9 g; IC50 [15]: 44.8 ± 8.15 nM; IC50 [16]: 71.1 ± 1.97 nM; IC50 [17]: 103 ± 8.87 nM; IC50 [18]: 108 ± 4.23 nM |
| CCC1(O)CC2CN(CCc3c([nH]c4ccccc34)C(C(=O)OC)(c3cc4c(cc3OC)N(C=O)C3C(O)(C(=O)NNC(=O)C5CCCN5C(=O)CNC(=O)OCc5ccccc5)C(O)C5(CC)C=CCN6CCC43C65)C2)C1 (centres unmarked) [BX-CCXJ, Z-GP-NHNH-Vincristine] | 40.1 ± 2.09 nM | 101 ± 9.02 nM | 54.8 ± 8.41 nM | 135 ± 5.54 nM | 72.8 ± 4.59 nM | 44.9 ± 3.28 nM | 10 mg/kg | 91.18** % | 21.9 ± 2.9 g | 0.23 ± 0.09 g | 19.5 ± 1.4 g | 76.9 ± 4.55 nM | 61.7 ± 6.14 nM | 33.4 ± 2.01 nM | 57.3 ± 3.36 nM | 88.63** % | 21.9 ± 2.1 g | 0.29 ± 0.13 g | 22.2 ± 1.2 g | 326 ± 13.3 nM | IC50 [19]: 169 ± 5.67 nM; IC50 [12]: 55.3 ± 1.9 nM; Anti-tumor rate (%) (K562 xenografts): 75.00** %; Body weight (g) Post-dose (K562 xenografts): 22.5 ± 1.1 g; Tumor weight (K562 xenografts): 0.42 ± 0.14 g; Body weight (g) Pre-dose (K562 xenografts): 21.2 ± 0.9 g; Anti-tumor rate (%) (HL-60 xenografts): 72.12** %; Body weight (g) Post-dose (HL-60 xenografts): 19.7 ± 0.9 g; Tumor weight (HL-60 xenografts): 0.58 ± 0.17 g; Body weight (g) Pre-dose (HL-60 xenografts): 19.3 ± 1.1 g; IC50 [13]: 47.7 ± 2.64 nM; IC50 [14]: 176 ± 5.51 nM; Anti-tumor rate (%) (LOVO xenografts): 79.45** %; Body weight (g) Post-dose (LOVO xenografts): 24.2 ± 1.7 g; Tumor weight (LOVO xenografts): 0.59 ± 0.33 g; Body weight (g) Pre-dose (LOVO xenografts): 23.8 ± 1.0 g; IC50 [15]: 24.9 ± 1.78 nM; IC50 [16]: 88.9 ± 6.84 nM; IC50 [17]: 43.2 ± 3.53 nM; IC50 [18]: 73.2 ± 3.66 nM |
| CCC12C=CCN3CCC4(c5cc(C6(C(=O)OC)CC7CC(C(C)(F)F)CN(Cc8c6[nH]c6ccccc86)C7)c(OC)cc5N(C)C4C(O)(C(=O)NNC(=O)C4CCCN4C(=O)CNC(=O)OCc4ccccc4)C1O)C32 (centres unmarked) [BX-CCFN, Z-GP-NHNH-Vinflunine] | 309 ± 5.78 nM | 301 ± 14.3 nM | 528 ± 34.8 nM | 604 ± 17.9 nM | 726 ± 98.2 nM | 229 ± 6.6 nM | 15 mg/kg | 88.13** % | 20.6 ± 1.6 g | 0.31 ± 0.11 g | 20.2 ± 0.7 g | 289 ± 28.8 nM | 459 ± 13.5 nM | 299 ± 7.64 nM | 614 ± 9.29 nM | 88.24** % | 22.1 ± 1.2 g | 0.30 ± 0.17 g | 21.9 ± 1.3 g | 390 ± 15.7 nM | IC50 [19]: 908 ± 20.2 nM; IC50 [12]: 430 ± 10.1 nM; Anti-tumor rate (%) (K562 xenografts): 66.08** %; Body weight (g) Post-dose (K562 xenografts): 23.0 ± 0.8 g; Tumor weight (K562 xenografts): 0.57 ± 0.13 g; Body weight (g) Pre-dose (K562 xenografts): 22.9 ± 1.3 g; Anti-tumor rate (%) (HL-60 xenografts): 70.68** %; Body weight (g) Post-dose (HL-60 xenografts): 18.6 ± 1.4 g; Tumor weight (HL-60 xenografts): 0.61 ± 0.35 g; Body weight (g) Pre-dose (HL-60 xenografts): 18.7 ± 1.4 g; IC50 [13]: 335 ± 7.31 nM; IC50 [14]: 270 ± 7.7 nM; Anti-tumor rate (%) (LOVO xenografts): 83.63** %; Body weight (g) Post-dose (LOVO xenografts): 24.5 ± 1.5 g; Tumor weight (LOVO xenografts): 0.47 ± 0.31 g; Body weight (g) Pre-dose (LOVO xenografts): 23.6 ± 1.3 g; IC50 [15]: 320 ± 8.51 nM; IC50 [16]: 317 ± 31.3 nM; IC50 [17]: 430 ± 10.4 nM; IC50 [18]: 606 ± 11.5 nM |
